Tests used:
Assay in all cases: relative viability (nuclei count vs DMSO), 5 days (fraction); higher = more cells survive
[1] = compound: C=CC(=O)Nc1cc(-n2c(=O)ccc3cnc4ccc(-c5ccc(NS(C)(=O)=O)cc5)cc4c32)ccc1C [BMX-IN-1] + N=C(N)NC(=N)NCCc1ccccc1 [Phenformin] (partner 250 µM)
How it was run: (§1)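 Five library-drug doses in √10 steps were combined with a fixed anchor-drug dose, or a single drug was given alone, by pin tool to lung cancer cell lines in 1536-well plates the day after seeding. Nuclei were stained and counted after 5 days. Relative viability is the nuclei count in treated wells over that in vehicle wells, taken as the median of duplicate plates.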

[2] = compound: C=CC(=O)N1CCC[C@@H](n2nc(-c3ccc(Oc4ccccc4)cc3)c3c(N)ncnc32)C1 [Ibrutinib] + CS(=O)(=O)N1CCN(Cc2cc3nc(-c4cccc5[nH]ncc45)nc(N4CCOCC4)c3s2)CC1 [Pictilisib] (partner 1 µM)
How it was run: as §1

[3] = compound: C=CC(=O)Nc1cc(-n2c(=O)ccc3cnc4ccc(-c5ccc(NS(C)(=O)=O)cc5)cc4c32)ccc1C [BMX-IN-1] + O=C(c1cc(Cc2n[nH]c(=O)c3ccccc23)ccc1F)N1CCN(C(=O)C2CC2)CC1 [Olaparib] (partner 8 µM)
How it was run: as §1

[4] = compound: C=CC(=O)N1CCC[C@@H](n2nc(-c3ccc(Oc4ccccc4)cc3)c3c(N)ncnc32)C1 [Ibrutinib] + O=C(c1cc(Cc2n[nH]c(=O)c3ccccc23)ccc1F)N1CCN(C(=O)C2CC2)CC1 [Olaparib] (partner 8 µM)
How it was run: as §1

Cell Line	relative viability ([1]; first compound 0.02 µM)	relative viability ([1]; first compound 0.2 µM)	relative viability ([1]; first compound 0.6325 µM)	relative viability ([1]; first compound 2 µM)	relative viability ([2]; first compound 0.005 µM)	relative viability ([2]; first compound 0.01581 µM)	relative viability ([2]; first compound 0.05 µM)	relative viability ([2]; first compound 0.1581 µM)	relative viability ([2]; first compound 0.5 µM)	relative viability ([3]; first compound 0.02 µM)	relative viability ([3]; first compound 0.2 µM)	relative viability ([3]; first compound 0.6325 µM)	relative viability ([3]; first compound 2 µM)	relative viability ([4]; first compound 0.005 µM)	relative viability ([4]; first compound 0.01581 µM)	relative viability ([4]; first compound 0.05 µM)	relative viability ([4]; first compound 0.1581 µM)	relative viability ([4]; first compound 0.5 µM)
NCI-H1734	0.341	0.431	0.461	0.415	0.354	0.446	0.43	0.491	0.388	0.645	0.683	0.689	0.604	0.57	0.629	0.788	0.67	0.592
NCI-H1755	0.544	0.673	0.711	0.612	0.418	0.421	0.424	0.389	0.362	0.903	0.941	1.01	0.873	0.921	0.886	0.88	0.926	0.894
NCI-H1792	0.235	0.354	0.292	0.312	0.286	0.25	0.23	0.295	0.242	0.492	0.436	0.491	0.322	–	0.506	0.402	0.353	0.379
NCI-H1793	0.272	0.398	0.467	0.433	–	0.466	0.323	0.357	0.274	1.1	1.01	1.05	0.92	0.669	0.562	0.582	0.833	0.4
NCI-H1915	0.32	0.387	0.389	0.37	–	0.978	0.891	0.609	1.02	0.267	0.27	0.263	0.246	0.283	0.256	0.257	0.281	0.241
NCI-H1944	0.2	0.219	0.234	0.205	0.305	0.334	0.308	0.317	0.316	0.439	0.414	0.396	0.435	0.411	0.404	0.413	0.387	0.359
NCI-H1975	0.404	0.428	0.453	0.416	0.264	0.271	0.234	0.313	0.105	0.837	1.02	0.853	0.841	0.886	0.775	0.688	0.802	0.482
NCI-H1993	0.438	0.525	0.453	0.492	0.777	0.7	0.139	–	0.871	1.21	1.15	0.913	1.06	0.849	0.939	1.36	1.15	0.836
NCI-H2009	0.47	0.549	0.531	0.485	0.593	0.846	0.742	0.468	0.759	0.838	0.646	0.654	0.66	0.754	0.671	0.771	0.802	0.738
NCI-H2023	0.466	0.522	0.418	0.413	0.165	0.308	0.207	0.25	0.206	0.516	0.655	0.47	0.489	0.492	0.528	0.457	0.516	0.542
NCI-H2085	0.664	0.68	0.81	0.707	0.432	0.473	0.48	0.369	0.417	0.807	0.704	0.782	0.746	0.764	0.735	0.736	0.749	0.748
NCI-H2087	0.462	0.572	0.508	0.443	0.686	0.878	0.973	0.339	0.862	0.627	0.62	0.556	0.643	0.602	0.715	0.691	–	0.724
NCI-H2126	0.517	0.559	0.581	0.526	–	0.469	0.454	0.399	0.43	0.979	0.897	1.03	0.875	0.879	0.899	0.88	0.905	0.747
NCI-H2170	0.375	0.4	0.415	0.416	0.234	0.312	0.243	0.261	0.169	0.587	0.677	0.717	0.624	0.568	0.502	0.433	0.607	0.156
NCI-H2228	0.339	0.388	0.458	0.37	0.316	0.486	0.276	0.433	0.386	0.768	0.835	0.667	0.784	0.774	0.601	0.776	1.08	0.715
NCI-H2347	0.314	0.368	0.38	0.357	0.648	0.672	0.587	0.299	0.535	0.523	0.603	0.597	0.573	0.659	0.512	0.626	0.619	0.536
NCI-H2405	0.389	0.568	0.391	0.429	0.33	0.384	0.282	–	0.485	0.958	0.958	0.977	0.865	0.877	0.877	–	–	0.953
NCI-H3122	0.377	0.633	0.41	0.38	0.563	0.61	0.69	0.375	0.533	0.678	0.781	0.672	0.64	0.774	0.6	0.582	0.644	0.695
PC-3 [JPC-3]	0.459	0.488	0.483	0.491	0.621	0.685	0.686	0.531	0.528	1.25	1.46	1.06	1.1	1.21	0.996	0.93	1.29	0.523
PC-14	0.575	0.535	0.809	0.583	0.72	0.621	0.558	0.88	0.101	0.265	0.265	0.297	0.266	0.369	0.318	0.37	0.286	0.265
RERF-LC-KJ	0.439	0.408	0.42	0.416	0.482	0.518	0.46	0.548	0.441	0.968	1.09	1.06	0.923	0.994	0.863	0.89	0.965	0.868
SK-LU-1	0.513	0.636	0.626	0.524	0.381	0.509	0.542	0.55	0.549	0.491	0.403	0.516	0.506	0.411	0.426	0.447	0.722	0.371
SW 1573	0.383	0.446	0.342	0.351	0.416	0.466	0.478	0.414	0.503	0.592	0.49	0.433	0.343	0.57	0.401	0.51	0.456	0.485
UMC-11	0.294	0.316	0.356	0.367	0.31	0.781	0.795	0.777	0.784	0.402	0.389	0.364	0.364	0.338	0.392	0.538	0.663	0.377
